Data from patent US20040127575A1, “Method for counteracting a pathologic change in the beta-adrenergic pathway” (priority 2002, published 2004).
Values joined by “and” are separate entries in the source; they are usually repeats but may differ in a detail not shown here. Equal values may be shown once. “Also recorded” adds a separate entry of the source.

Experiments:
[1] = system: rat neonatal cardiomyocytes; test: cyclic AMP accumulation in rat neonatal cardiomyocytes (EIA); conditions: for attenuation of isoproterenol-stimulated cAMP accumulation: 1 μM isoproterenol, 200 nM antagonist; for β2AR response/AC activity (procaterol, forskolin): FIG. 11
Procedure: Ventricular cardiomyocytes were isolated from neonatal rat hearts as described before and seeded to fibronectin coated plates in DMEM21 and Coon's F12 with 10% FBS. […] Myocytes were used within 24 to 72 hr after isolation.
For pretreatment, cells were washed once in serum-free media (SFM) supplemented with 0.1% bovine serum albumin (BSA) and incubated with TGF-β1 in the presence or absence of inhibitors in the same media. Control cells were treated with the appropriate vehicles.
HBSMC or rat neonatal cardiomyocytes were subcultured in 96-well or 24-well plates for 24 hr to 48 hr, then treated with TGFβ1 (1-2ng/ml), Activin A (10-50 ng/ml) and other drugs in 1% serum-containing or serum-free media. After 24 hr incubation, phosphodiesterase inhibitor, IBMX (200 uM) was added to fresh media for 10-15 min before exposure to either 10 uM procaterol, 1 uM isoproterenol, or 10-50 uM forskolin for 10 min to stimulate cAMP production. The stimulation medium was removed and cells were lysed in 0.1M HCl. cAMP levels were measured using Direct cAMP EIA kit from Assay Designs, Inc. following manufacture's instruction.
Subsequent to treatment with TGF-β1 (1-2 ng/ml), cardiomyocytes (˜1×10^5 cells/well in 24-well plates) were incubated with phosphodiesterase inhibitor, IBMX (200 μM) for 30 min in SFM. Cells were then exposed to either procaterol (10 μM), forskolin (10-50 μM), or isoproterenol (Iso, 1 μM) for 10 min to allow for accumulation of cAMP. […] The incubations were terminated by removal of the medium. Cells in each well were lysed in 150 μl of 0.1 M HCl at room temperature (RT) for 30 min. Intracellular cAMP contents were measured using the Direct cAMP EIA kit following manufacture's instruction, and the cAMP levels were calculated in pmol/ml.

[2] = system: panel of related protein kinases; test: panel of related protein kinases; conditions: relative to TGFβ-RI kinase
[3] = system: rat neonatal cardiomyocytes; test: real-time RT-PCR of mRNA levels in cardiomyocytes; conditions: for β2-AR mRNA levels in cardiomyocytes: 24 hr pretreatment for TGF-β1
Text: Total RNA was extracted from cells using Qiagen's RNAeasy kit (Valencia, Calif.), and analyzed by quantitative real time RT-PCR [Gibson UEM, Heid C A and Williams P M. Genome Res. 6, 995-1001, 1996] using an ABI Prism™ 7700 Sequence Detection System (PE Applied Biosystems, Foster City, Calif.). This system is based on the ability of the 5′nuclease activity of Taq polymerase to cleave a nonextendable dual-labeled fluorogenic hybridization probe during the extension phase of PCR. The probe is labeled with reporter fluorescent dye at the 5′ end and a quencher fluorescent dye (6-carboxy-tetramethyl-rhodamine) at the 3′ end. When the probe is intact, reporter emission is quenched by the physical proximity of the reporter and quencher fluorescent dyes. However, during the extension phase of PCR, the nucleolytic activity of the DNA polymerase cleaves the hybridization probe and releases the reporter dye from the probe with a concomitant increase in reporter fluorescence.
Sequence specific primers and probes were designed using Primer Express software (PE Applied Biosystems, Foster City, Calif.). […] Primers were used at a concentration of 200 nM and probes at 100 nM in each reaction. Multiscribe reverse transcriptase and AmpliTaq Gold polymerase (PE Applied Biosystems, Foster City Calif.) were used in all RT-PCR reactions and PCR reactions. RT-PCR parameters were as follows: 48° C. for 30 min (reverse transcription), 95° C. for 10 min (AmpliTaq Gold activation) and 40 cycles of 95° C. for 15 sec, 60° C. for 1 min. Relative quantitation of β1-AR, β2-AR, and 18S mRNA were calculated using the comparative threshold cycle number for each sample fitted to a five point standard curve (ABI Prism 7700 User Bulletin #2, PE Applied Biosystems, Foster City Calif.). Expression levels were normalized to 18S rRNA.

[4] = system: TGF-β mediated fibrosis; test: TGF-β mediated fibrosis in in vitro and in vivo models; conditions: several in vitro and in vivo models
[5] = molecular target: TGFβ-RII receptor (Homo sapiens, UniProt P37173); test: specificity against TGFβ-RII receptor; conditions: relative to TGFβ-RI kinase
Sequence of TGFβ-RII receptor (P37173 23-567): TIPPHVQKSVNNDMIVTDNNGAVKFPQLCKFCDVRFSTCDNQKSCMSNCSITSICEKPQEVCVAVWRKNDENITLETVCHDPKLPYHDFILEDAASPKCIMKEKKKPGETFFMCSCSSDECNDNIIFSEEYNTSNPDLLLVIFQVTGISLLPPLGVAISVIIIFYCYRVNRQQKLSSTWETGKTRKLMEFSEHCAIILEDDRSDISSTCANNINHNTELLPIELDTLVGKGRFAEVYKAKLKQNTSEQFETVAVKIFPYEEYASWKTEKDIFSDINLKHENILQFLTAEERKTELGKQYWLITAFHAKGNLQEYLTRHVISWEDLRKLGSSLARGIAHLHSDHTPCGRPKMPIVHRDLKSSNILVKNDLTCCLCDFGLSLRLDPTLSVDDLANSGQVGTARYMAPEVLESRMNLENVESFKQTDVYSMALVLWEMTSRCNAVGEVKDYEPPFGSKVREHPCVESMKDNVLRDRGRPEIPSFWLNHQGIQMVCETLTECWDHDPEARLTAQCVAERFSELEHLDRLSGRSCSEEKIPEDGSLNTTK

[6] = system: Smad2, Smad3; test: Western blot of phospho-Smad2 and Smad3 in hBSMC; format: cell-based, human
Procedure: (§1) After incubation with TGFβ1 and other drugs, cells were washed once with 1×PBS and lysed in 0.2 ml/plate cold RIPA buffer (phosphate buffered saline, pH 7.4, 1% NP-40, 0.5% sodium deoxycholate, 0.1% sodium dodecylsulfate, 1 mM sodium orthovanadate, 1 mM NaF, 1 mM β-glycerolphosphate, 1 uM okadaic acid, 10 ng/ml aprotinin, 10 ng/ml leupeptin, 1 mM phenymethylsulfonyl fluoride). Samples were clarified by centrifugation (4° C., 10 min, 15,000×g), and protein concentration was determined by BCA method (PIRCE). Lysates with equal amounts of total cell protein (15-20 ug) were separated on 10% SDS-NuPAGE (Invitrogen) and then transferred to nitrocellulose membrane. The membrane was blocked in 3% nonfat dry milk/TBST (10 mM Tris-HCl pH 7.5, 150 mM NaCl, 0.1% Tween 20) for 1 hr, and probed with anti-Smad2/3 mouse monoclonal antibody [Transduction Laboratories (S66220); 1:500 dilution in 3% milk/TBST], or anti-phospho-Smad2 (Ser465/467) rabbit antiserum [Cell Signaling (3101S); 1:500 dilution in 3% BSA/TBST] at 4° C. overnight. Donkey anti-mouse HRP [Santa Cruz (SC-2314); 1:2000 dilution] or donkey anti-rabbit HRP [Santa Cruz (SC-23130; 1:2000 dilution] were used as secondary antibody. Immunoreactivity was detected with chemiluminescence reagent (Santa Cruz) and visualized by exposing to x-ray film (Kodak).

[7] = system: Smad2; test: Western blot of Smad2 phosphorylation in cardiomyocytes
Procedure: as §1
The binding of primary antibodies was followed by incubation for 1 hour at RT with the secondary horseradish peroxidase (HRP) conjugated goat anti-mouse or goat anti-rabbit antibody (Santa Cruz Biotechnology). Immunoreactivity was detected with chemiluminescence reagents and visualized by exposing to x-ray film (Kodak).

[8] = system: Smad2/3 and Smad4; test: immunofluorescence staining of Smad nuclear translocation in cardiomyocytes
Procedure: The nuclear translocation of Smad proteins in response to TGF-β1 was determined by immunofluorescence staining with monoclonal anti-Smad2/3 antibody (BD Transduction Labarotories) and anti-Smad4 antibody (sc-7966) (Santa Cruz Biotechnology). Briefly, myocytes cultured on Lab-Tek chamber slides (Nalge Nunc International, Naperville, Ill.) coated with fibronectin and gelatin were fixed with 4% paraformaldehyde in PBS for 5 min, then penetrated with 0.1% saponin/1% normal goat serum (NGS) in PBS for 15 min. After blocking nonspecific binding with 5% NGS/0.05% saponin in PBS for 15 min, the slides were incubated with primary antibody in 1% NGS in PBS at 4° C. overnight. After another washing and blocking, slides were incubated with a biotinylated anti-mouse antibody for 30 min, followed by fluorescein isothiocyanate (FITC)-conjugated-avidin (Vector, Burlingame, Calif.) for 30 min. Slides were dried and mounted in Vectashield (Vector). Samples were analyzed by fluorescence microscopy.

[9] = system: human bronchial smooth muscle cells (hBSMC); test: cyclic AMP accumulation in hBSMC (EIA); format: cell-based
Procedure: Human bronchial smooth muscle cells (hBSMC) were purchased from Clonetics (BioWhittaker, Inc., Walkersville, Md.), and maintained in SmGM-2 containing 5% fetal bovine serum (Clonetics) at 37° C./5% CO2. All experiments were performed on cells at passages from 6 to 8. For pretreatment, cells were incubated in 1% serum-containing media or serum-free media in the presence or absence of TGFβ1, Activin A and other drugs. Control cells were treated with the appropriate vehicles.

[10] = system: β2-AR receptor binding sites; test: radioligand binding in cardiomyocytes; format: cell-based, rat
Procedure: The radioligand binding assay was performed as described in Example 1. To define the nonspecific binding to β2-AR, 50 nM CGP-20712A were used.
Membranes were then prepared and binding of 100 pm [^125]-CYP was measured for 2 hours at 23° C. using 8 μg membrane protein, and expressed as fmol/mg protein. Binding in the presence of 100 nM CGP-20712A was defined as binding to β2-AR, while binding in the presence of 100 μM propranolol was defined as non-specific binding. Subtraction of β2-AR binding from total binding was defined as β1-AR binding. The results are shown in FIG. 25 (p<0.05 vs. vehicle).

[11] = system: β2-adrenergic receptors on cell surface; test: radioligand binding with [3H]CGP-12177 on intact hBSMC; format: cell-based, human; conditions: TGFβ1 exposure
Procedure: The number of β2-adrenergic receptors on cell surface was determined by radioligand binding using hydrophilic, membrane-impermeable β-adrenergic antagonist [^3H]CGP-12177. Intact hBSMCs in 10 cm dish were preincubated with 5 nM [^3H]-CGP 12177 in the presence or absence of 20 uM propranolol (to define the amount of nonspecific binding) in SmBM for 1 hour at 37° C. with very gentle shaking. Cells were washed 3 times with ice-cold 1×PBS containing 0.1% Tween-20 (binding buffer) and 3 more times with ice-cold 1×PBS. 400 μl of RIPA buffer containing protease inhibitors was added to the plates and cells were scraped off the plates. Cell lysates were collected and protein concentrations were determined by BCA method (PIERCE). The radioligand bound to the whole cell was quantified by liquid scintillation counter and normalized to the protein concentration.

[12] = system: β2AR mRNA; test: real-time quantitative PCR of β2AR mRNA in hBSMC; format: cell-based, human; conditions: TGFβ1 exposure
Text: Expression levels were normalized to 18S rRNA.

In the case of `CCC(NC(C)C)C(O)c1ccc(O)c2[nH]c(=O)ccc12` (centres unmarked) [procaterol, reference compound], the “cAMP accumulation by agonist” value ([1]; 10 μM procaterol) is reported as “substantially increased”.

With `N#CC(=C(/N)Sc1ccccc1N)/C(C#N)=C(\N)Sc1ccccc1N` [U0126, reference compound] the “β2-AR mediated (procaterol stimulated) cAMP accumulation after 24 hr TGF-β1 exposure, compared to vehicle” value ([1]; Compound No. 79 200 nM, p38 inhibitor 0.5 μM, U-0126 5 μM, JNK inhibitor I 5 μM, TGF-β1 1 ng/ml) was “No significant effects; also recorded: did not affect”.

In the case of `Fc1ccc(Cl)cc1-c1nc(Nc2ccncc2)c2nccnc2n1` [Compound No. 79], the “specificity over members of a panel of related protein kinases” value [2] is reported as “at least 20 fold”, the “effect on TGFβ1-induced loss of β2AR response and AC activity” value ([1]; Example 1, FIG. 9) is reported as “prevents” and the “basal cAMP levels in cardiomyocytes” value ([1]; higher concentration) is reported as “increased”. For the same molecule, the “isoproterenol or forskolin induced cAMP accumulation in TGF-β1 treated cardiomyocytes” value ([1]; pre-incubation, Compound No. 79 200 nM) was “preserved”, the “effect on TGF-β1 induced down-regulation of β2-AR mRNA” value ([3]; 5 ng/ml TGF-β1, 24 hr, dose-dependent) was “reversed” and the “effect on activin-induced down-regulation of β2AR mRNA” value ([3]; FIG. 10) was “prevented”. The “effect on decreased AC5 and AC6 mRNA levels in TGF-β1 treated cardiomyocytes” value ([3]; dose-dependent) was “inhibited”, the “effect on TGF-β1 induced down-regulation of Smad3 mRNA” value ([3]; dose-dependent, within 24 hr) was “blocked” and the “mRNA levels of β2-AR in TGFβ1 treated cells” value ([3]; high doses (400-1000 nM)) was “higher than that in control cells”. For the same molecule, the “effect on TGF-β mediated fibrosis” value [4] was “able to block”, the “specificity against TGFβ-RII receptor” value [5] was > 100 fold and the “effect on TGFβ1-induced Smad2 phosphorylation and Smad3 down-regulation in hBSMC” value ([6]; FIG. 13) was “blocks”. For the same molecule, the “effect on TGF-β1 induced Smad2 phosphorylation/activation” value ([7]; pre-incubation, Compound No. 79 at 400 nM, 1 hr and 24 hr) was “significantly blocked”, the “basal phosphorylation of Smad2” value ([7]; resting cardiomyocytes) was “blocked” and the “effect on TGF-β1 induced Smad2/3 and Smad4 translocation into the nucleus” value ([8]; 400 nM) was “completely abolished”. For the same molecule, the “effect on TGFβ1-induced loss of adrenergic responsiveness in hBSMC” value ([9]; FIG. 4) was “prevents”.

With `Cc1ccc(OCC(O)C(C)NC(C)C)c2c1CCC2` (centres unmarked) [ICI 118, 551, reference compound] the “attenuation of isoproterenol-stimulated cAMP accumulation” value [1] was ~25%.

In the case of “TGF-β1: Human recombinant transforming growth factor-β1 from R&D System”, the “reduction in procaterol-stimulated cAMP accumulation” value ([1]; TGF-β1 1 ng/ml pre-treatment 24 hr, 10 μM procaterol, maximal effect) is reported as 59±5.2% and ~60%, the “cAMP accumulation stimulated by forskolin” value ([1]; TGF-β1 exposure, 25 μM forskolin) is reported as “decreased” and the “decrease of cAMP accumulation when β2-ARs selectively stimulated by isoproterenol in the presence of CGP-20712A” value ([1]; TGF-β1 pretreatment 24 hr) is reported as ~65%. The “reduction in β1-AR mediated cAMP accumulation (isoproterenol in the presence of ICI 118, 551)” value ([1]; TGF-β1 pretreatment 24 hr) was 16.5±3.1%, the “Smad7 mRNA in cardiomyocytes” value [3] was “up-regulated” and the “β1-AR mRNA levels in cardiomyocytes” value [3] was “did not significantly alter”. The “β2-AR mRNA levels in cardiomyocytes” value [3] was “decreased β2-AR mRNA levels dramatically”, the “earliest time of suppression of β2-AR mRNA” value ([3]; after treatment) was 1 h and the “expression of βARK1, Gsα, Giα-1, Giα-3” value ([3]; message or protein levels) was “did not alter”. The “mRNA levels of AC5 and AC6” value ([3]; time-dependent) was “significant reduction”, the “Smad3 mRNA in cardiomyocytes” value ([3]; within 24 hr) was “down-regulated” and the “Smad2 phosphorylation in hBSMC” value [6] was “induces”. For the same molecule, the “Smad3 expression in hBSMC” value [6] was “down-regulated”, the “β2-AR receptor binding sites in cardiomyocytes” value [10] was “trend to decrease” and the “time of peak serine phosphorylation of Smad2” value ([7]; maintained for 24 hr) was 1 h. The “Smad2/3 and Smad4 fluorescence staining in the nucleus” value ([8]; stimulation for 1 hr) was “dramatically increased”, the “time course of loss of β2AR response (procaterol-induced cAMP) in hBSMC” value ([9]; more profound at 24 hr or later) was “after 12 hr” and the “time course of effect on AC activity (forskolin-induced cAMP) in hBSMC” value ([9]; to a lesser extent) was “only observed 24 hr later”. For the same molecule, the “βAR binding sites on hBSMC” value [11] was “reduces” and the “β2AR mRNA in hBSMC” value [12] was “significantly reduces”.

For `Cn1cc(C(F)(F)F)nc1-c1ccc(OCC(O)CNCCOc2ccc(O)c(C(N)=O)c2)cc1` (centres unmarked) [CGP-20712A, reference compound], the “attenuation of isoproterenol-stimulated cAMP accumulation” value [1] was ~75%.

B1: activin A: Activin A obtained from R&D System (protein, UniProt P08476 311-426, looked up)
Inhibin beta A chain: GLECDGKVNICCKKQFFVSFKDIGWNDWIIAPSGYHANYCEGECPSHIAGTSGSSLSFHSTVINHYRMRGHSPFANLKSCCVPTKLRPMSMLYYDDGQNIIKKDIQNMIVEECGCS
For B1, the “β2AR response/AC activity (procaterol, forskolin)” value [1] was “induces loss”, the “β2-AR mRNA levels in cardiomyocytes” value [3] was “down-regulated” and the “βAR response and AC activity in hBSMC” value ([9]; higher concentration) was “causes loss of βAR response as well as reduced AC activity”.

B2: IL-1β: IL-1β, cytokine applied to rat cardiomyocytes (protein, UniProt Q63264 117-268, looked up)
Interleukin-1 beta: VPIRQLHCRLRDEQQKCLVLSDPCELKALHLNGQNISQQVVFSMSFVQGETSNDKIPVALGLKGLNLYLSCVMKDGTPTLQLESVDPKQYPKKKMEKRFVFNKIEVKTKVEFESAQFPNWYISTSQAEHRPVFLGNSNGRDIVDFTMEPVSS
In the case of B2, the “β2AR response/AC activity (procaterol, forskolin)” value [1] is reported as “induces loss”.
